Where two headings read alike, the source gives them in different places.
Experiments:
HCV replicon cells = test: HCV EC50 determination: replicon cells, luciferase readout; format: cell-based; settings: Hepatitis C virus, 72 h
Protocol: Replicon cells were seeded in 96-well plates at a density of 8×10^3 cells per well in 100 μL of culture medium, excluding Geneticin. Compound was serially diluted in 100% DMSO and then added to the cells at a 1:200 dilution, achieving a final concentration of 0.5% DMSO and a total volume of 200 μL. Plates were incubated at 37° C. for 3 days, after which culture medium was removed and cells were lysed in lysis buffer provided by Promega's luciferase assay system. Following the manufacturer's instruction, 100 μL of luciferase substrate was added to the lysed cells and luciferase activity was measured in a TopCount luminometer.

HCV Δ21 NS5b polymerase = biological target: T1, HCV Δ21 NS5b polymerase (Hepatitis C virus genotype 1b, UniProt Q9WMX2); test: HCV IC50 determination: NS5b polymerase assay; format: biochemical; settings: triphosphates of the listed examples, 35° C., 90 min
T1 construct: 75 nM HCV Δ21 NS5b polymerase
Protocol: Assay Protocol: NS5b polymerase assay (40 μL) was assembled by adding 28 μL polymerase mixture (final concentration: 50 mM Tris-HCl at pH 7.5, 10 mM KCL, 5 mM MgCl2, 1 mM DTT, 10 mM EDTA, 4 ng/μL of RNA template, and 75 nM HCV Δ21 NS5b polymerase) to assay plates followed by 4 μL of compound dilution. The polymerase and compound were pre-incubated at 35° C. for 10 minute before the addition of 8 μL of nucleotide substrate mixture (33P-α-labeled competing nucleotide at KM and 0.5 mM of the remaining three nucleotides). The assay plates were covered and incubated at 35° C. for 90 min. Reactions were then filtered through 96-well DEAE-81 filter plates via vacuum. The filter plates were then washed under vacuum with multiple volumes of 0.125 M NaHPO4, water, and ethanol to remove unincorporated label. Plates were then counted on TopCount to assess the level of product synthesis over background controls. The IC50 value was determined using Prism fitting program.

[1] = replicon cells, 3 days at 37° C., luciferase activity, read-out: EC50

Molecule	EC50 (HCV replicon cells; [1])	EC50 (HCV replicon cells)	also measured
C[C@@]1(O)[C@H](O)[C@@H](CO)O[C@H]1c1cnc2c(N)ncnn12 [Compound 1, (2S,3R,4R,5 R)-2-(4-aminoimidazo[1,2-f][1,2,4]triazin-7-yl)-5-(hydroxymethyl)-3-methyl-tetrahydrofuran-3,4-diol]	< 10 µM		
C[C@@]1(O)[C@H](O)[C@@H](CO)O[C@H]1c1cnc2c(N)nc(N)nn12 [Compound 3]	< 250 µM		
CC(C)OC(=O)[C@H](C)NP(=O)(OC[C@H]1O[C@@H](c2nnc3c(=O)[nH]c(N)nn23)[C@](C)(O)[C@@H]1O)Oc1ccc(Cl)cc1 (stereo partly drawn) [Compound 9]		< 250 µM	
CNc1ncnn2c([C@@H]3O[C@H](CO)[C@@H](O)[C@@]3(C)O)cnc12 [Compound 17]	< 10 µM		
CNc1ncnn2c([C@@H]3O[C@H](COP(=O)(OCCSC(=O)C(C)(C)C)OCCSC(=O)C(C)(C)C)[C@@H](O)[C@@]3(C)O)cnc12 [Compound 18]		< 10 µM	
(2S,3R,4R,5 R)-2-(4-aminoimidazo[1,2-f][1,2,4]triazin-7-yl)-5-(hydroxymethyl)-3-methyl-tetrahydrofuran-3,4-diol [Compound 1]			IC50 (HCV Δ21 NS5b polymerase): < 10 µM
